Patent publication US20100152275A1, “Drug or Supplement Combination with Conjugated Linoleic Acid for Fat Loss in Mammals” (Kaloness, Inc., priority 2008, published 2010)
Like-named read-outs stand apart in the source and are kept apart here.

Tests used:
3T3-L1 adipocytes [1] = assay: Triglyceride levels (delipidation) in 3T3-L1 adipocytes; assay type: cell-based, Mouse; conditions: for TG levels: differentiated 3T3-L1 adipocytes, alone or combined with t10c12 CLA; for reduced triglyceride levels by, relative to the linoleic acid control: Example 15, CLA 50 uM
Experimental: Two well known AMPK activators with very different chemical structures are metformin and AICAR. Metformin is from the class of biguanides while AICAR is a ribonucleoside analog that is phosphorylated in the cell to form ZMP, an AMP mimetic. […] A lower 50 μM level of t10c12 CLA was used in the experiment to better measure any effects of the combinations.
We recognize the complex medical effects and dangers of ATRA, retinoids, or rexinoids, has limited their therapeutic use in humans.
We tested the role of PPARβ/δ with the use of GW0742, a PPARβ/δ agonist.
Activating ligands include hydroxysterols such as 24(S)-Hydroxycholesterol or 24(S),25-epoxycholesterol.
We treated 3T3-L1 adipocytes with control or CLA fatty acids, with or without a statin drug.

MCP-1 mRNA = MCP-1 mRNA by real time PCR in 3T3-L1 adipocytes; assay type: cell-based, Mouse; conditions: 12 hrs
Experimental: CLA has been reported to cause inflammation which is considered a non-healthy condition. […] Metformin or AICAR was used in combination with t10c12 CLA in the media containing the adipocytes for 12 hrs. RNA was isolated and the inflammatory response, as measured by MCP-1 (an inflammatory cytokine) mRNA levels, was determined by real time PCR of the reverse transcribed RNA.

3T3-L1 fibroblasts = assay: Integrated stress response (ISR) in 3T3-L1 fibroblasts, microarray; assay type: cell-based, Mouse; conditions: 3T3-L1 fibroblasts prior to differentiation
Text: (§1) We have microarray analyses of 3T3-L1 fibroblasts prior to differentiation and from liver tissues in mice treated with t10c12 CLA that support the hypothesis that t10c12 CLA is selective in the types of cells responding. The ISR is a cell response that most cells are capable of inducing and is a key part of the response to t10c12 CLA [5, 19].

[2] = tested on: acetyl CoA carboxylase (ACC); conditions: for Phospho-ACC amount: 3T3-L1 adipocytes, LA = 1
Experimental: (§3) The level of phosphorylated AMPK and acetyl CoA carboxylase (ACC), one of AMPK's known in vivo substrates, was measured at various times after treating 3T3-L1 adipocytes with either 100 uM linoleic acid or trans-10, cis-12 CLA (t10c12 CLA). […] The total amounts of AMPK and ACC were also determined with antibodies that recognize the respective proteins regardless of phosphorylation status.
(§4) The phosphorylation levels of AMPK and ACC were then determined after treating 3T3-L1 adipocytes with either metformin, AICAR, or t10c12 CLA alone or in combination.

[3] = 14 d feeding trial of t10c12 CLA and metformin in MC mice; assay type: in vivo; conditions: mean ± SEM
Experimental: (§2) FIG. 1. […] Forty-two MC and 42 mL mice were fed diets containing soy oil or soy oil with 0.25% t10c12 CLA and drinking water containing either none, 0.33 mg/ml, or 3.33 mg/ml metformin (Met) for 14 days (n=6 mice per treatment). A positive control diet contained the standard amount of 0.5% t10c12 CLA without any metformin. Body weights were recorded and retroperitoneal (RP) and epididymal fat pads from all the mice were isolated and weighed.

[4] = 14 d feeding trial of t10c12 CLA and metformin in ML mice; assay type: in vivo; conditions: for fat pad weights relative to control untreated mice: 0.25% CLA, either dose of metformin; for change in body weight (BW) / final weight of the epididymal (EPI) / final weight of the retroperitoneal (RP): mean ± SEM
Experimental: as §2

liver tissues = assay: Microarray analysis of liver tissues of mice treated with t10c12 CLA; assay type: in vivo
Text: as §1

AMPK = AMPK phosphorylation in 3T3-L1 adipocytes, western blot; assay type: cell-based, Mouse; conditions: for Phospho-AMPK Amount: 3T3-L1 adipocytes, LA = 1
Experimental: as §3, §4

WAT of mice = assay: Microarray analysis of WAT of mice fed t10c12 CLA; assay type: in vivo
Text: Recent microarray analyses of the WAT of mice fed t10c12 CLA by our laboratory and others found three major trends. […] This initial inflammatory response is transient: the expression levels of many of these genes returns to normal levels following the first week of treatment, and the remaining genes are expressed at lower levels than the initial response. […] In particular, carnitine palmitoyltransferase I (CPT1), uncoupling protein 1 (UCP1), and uncoupling protein 2 (UCP2) show increases. The response in UCP1 and UCP2 genes is quite strong, as the levels of the induced mRNAs are in the 95th and 90th percentiles of the most abundant mRNAs in the adipocyte, respectively. UCP1 is usually exclusively expressed in brown adipose tissue, so this is a remarkable change in expression pattern with likely physiological effects. There is not a consensus that increased metabolic heat output occurs in t10c12 CLA treatments, but this increased metabolism has been observed in some studies.

3T3-L1 adipocytes [5] = assay: Microarray gene expression changes in 3T3-L1 adipocytes; assay type: cell-based, Mouse; conditions: compared with t10c12 CLA, data not shown
[6] = reference [18]; cited from earlier work
adipocytes = assay: Inflammatory response to phenformin in adipocytes; assay type: cell-based; conditions: compared with metformin
[7] = 100 uM, from 30 min, persisted 16 hr, vs linoleic acid

With `C[C@H](CC[C@@H]1OC1(C)C)[C@H]1CC[C@H]2[C@@H]3CC=C4C[C@@H](O)CC[C@]4(C)[C@H]3CC[C@]12C` [24(S),25-epoxycholesterol] the TG levels (3T3-L1 adipocytes [1]) was “did not reduce TG levels”.
In the case of `CC(C)[C@@H](O)CC[C@@H](C)[C@H]1CC[C@H]2[C@@H]3CC=C4C[C@@H](O)CC[C@]4(C)[C@H]3CC[C@]12C` [24(S)-Hydroxycholesterol], the TG levels (3T3-L1 adipocytes [1]) is reported as “did not reduce TG levels”.
In the case of `NC(=O)c1ncn([C@@H]2O[C@H](CO)[C@@H](O)[C@H]2O)c1N` [AICAR, aminoimidazole carboxamide ribonucleotide, reference compound], the “MCP-1 induction relative to the LA control” value (MCP-1 mRNA) is reported as “neither metformin nor AICAR alone produced a significant induction”.
For `CC1=C(/C=C/C(C)=C/C=C/C(C)=C/C(=O)O)C(C)(C)CCC1` [ATRA, All trans retinoic acid], the TG levels (3T3-L1 adipocytes [1]) was “increased amounts of TG”.
In the case of `CCCCC/C=C\C=C\CCCCCCCCC(=O)O` [CLA, trans-10, cis-12 CLA], the ISR response (3T3-L1 fibroblasts) is reported as “do not show this response”, the “reduction in triglyceride levels” value (3T3-L1 adipocytes [1]; Example 2, CLA alone, vs LA control) is reported as 50% and the “reduced triglyceride levels by, relative to the linoleic acid control” value (3T3-L1 adipocytes [1]) is reported as 25%. For the same molecule, the “total amount of ACC” value ([2]; 100 uM, 16 hr experiment) was “remained constant”, the “level of phosphorylated ACC” value [2, 7] was “increased levels” and the Phospho-ACC amount ([2]; 2 hr) was 4.1. The Phospho-ACC amount ([2]; 8 hr) was 3.3, the change in body weight (BW) ([3]; Met0, 14 d) was 1.42 ± 0.46 g and the final weight of the epididymal (EPI) ([3]; Met0, 14 d) was 0.31 ± 0.07 g. The final weight of the retroperitoneal (RP) ([3]; Met0, 14 d) was 0.1 ± 0.01 g, the “MCP-1 induction relative to the LA control” value (MCP-1 mRNA) was 23 fold and the “MCP-1 mRNA levels” value (MCP-1 mRNA; LA = 1) was 23. The “fat pad weights relative to control untreated mice” value [4] was “no significant change”, the change in body weight (BW) ([4]; Met0 (no metformin), 14 d) was 1.89 ± 0.95 g and the final weight of the epididymal (EPI) ([4]; Met0, 14 d) was 0.89 ± 0.17 g. The final weight of the retroperitoneal (RP) ([4]; Met0, 14 d) was 0.27 ± 0.08 g, the ISR in liver (liver tissues; compared with adipose tissue) was “weak ISR” and the “delipidation or inflammatory response in liver” value (liver tissues; mice treated with t10c12 CLA) was “lacked a significant delipidation or inflammatory response”. The “total amount of AMPK” value (AMPK; 100 uM, 16 hr experiment) was “remained constant”, the “level of phosphorylated AMPK” value (AMPK; [7]) was “increased levels” and the “Phospho-AMPK Amount” value (AMPK; 2 hr) was 6.0. For the same molecule, the “Phospho-AMPK Amount” value (AMPK; 8 hr) was 1.7, the “UCP1 induced mRNA level, percentile of the most abundant mRNAs in the adipocyte” value (WAT of mice; WAT of mice fed t10c12 CLA) was 95 percentile and the “UCP2 induced mRNA level, percentile of the most abundant mRNAs in the adipocyte” value (WAT of mice; WAT of mice fed t10c12 CLA) was 90 percentile. The “expression of key adipocyte lipid-related genes” value (WAT of mice; WAT of mice fed t10c12 CLA) was “reduced expression”, the “mRNA levels of key fatty acid oxidation genes (CPT1, UCP1, UCP2)” value (WAT of mice; WAT of mice fed t10c12 CLA) was “increased mRNA levels” and the “inflammatory response (Cox2, cytokines)” value (WAT of mice; first several days of dietary t10c12 CLA, transient) was “induce an inflammatory response”.
For `Cc1cc(SCc2sc(-c3ccc(C(F)(F)F)c(F)c3)nc2C)ccc1OCC(=O)O` [GW0742], the TG levels (3T3-L1 adipocytes [1]) was “little effect on TG levels”.
With `CN(C)C(=N)N=C(N)N` [Metformin] the change in body weight (BW) ([3]; Met2 (2 mmol/L), 14 d) was 1.96 ± 0.9 g, the final weight of the epididymal (EPI) ([3]; Met2 (2 mmol/L), 14 d) was 0.59 ± 0.07 g and the final weight of the retroperitoneal (RP) ([3]; Met2 (2 mmol/L), 14 d) was 0.23 ± 0.04 g. The change in body weight (BW) ([3]; Met20 (20 mmol/L), 14 d) was 2.82 ± 0.96 g, the final weight of the epididymal (EPI) ([3]; Met20 (20 mmol/L), 14 d) was 0.48 ± 0.09 g and the final weight of the retroperitoneal (RP) ([3]; Met20 (20 mmol/L), 14 d) was 0.23 ± 0.06 g. For the same molecule, the “MCP-1 induction relative to the LA control” value (MCP-1 mRNA) was “neither metformin nor AICAR alone produced a significant induction”, the “fat pad weights relative to control untreated mice” value [4] was “increased fat pad weights” and the final weight of the epididymal (EPI) ([4]; Met2 (2 mmol/L), 14 d) was 1.06 ± 0.13 g. For the same molecule, the final weight of the retroperitoneal (RP) ([4]; Met2 (2 mmol/L), 14 d) was 0.37 ± 0.1 g, the change in body weight (BW) ([4]; Met2 (metformin 2 mmol/L drinking water), 14 d) was 2.89 ± 1 g and the final weight of the epididymal (EPI) ([4]; Met20 (20 mmol/L), 14 d) was 1.08 ± 0.12 g. The final weight of the retroperitoneal (RP) ([4]; Met20 (20 mmol/L), 14 d) was 0.33 ± 0.06 g, the change in body weight (BW) ([4]; Met20 (metformin 20 mmol/L drinking water), 14 d) was 2.54 ± 0.51 g and the “induction of inflammatory genes (CD14, Clcf1, Cox2, Csf1, MCP-1, Osmr, PAI, SOCS3)” value (3T3-L1 adipocytes [5]) was “lower levels of induction”.
For `[H]/N=C(/N)N/C(=N/[H])NCCc1ccccc1` [Phenformin], the delipidation (3T3-L1 adipocytes [1]; Example 9) is given as “sufficient for the type of strong delipidation observed with t10c12 CLA treatments”, the lactic acidosis [6] is given as “can cause toxic lactic acidosis” and the p-AMPK levels (AMPK; compared with metformin) is given as “higher p-AMPK levels”. The inflammatory response (adipocytes) was “stronger than that observed with metformin”.
For `c1cc(-c2cnn3cc(-c4ccc(OCCN5CCCCC5)cc4)cnc23)ccn1` [compound C, reference compound], the “phosphorylation of Acetyl-Coenzyme A Carboxylase (ACC)” value ([2]; Example 2, western blot) was “inhibited” and the “phosphorylation of AMPK” value (AMPK; Example 2, western blot) was “inhibited”.
With `CC[C@H](C)C(=O)O[C@H]1CCC=C2C=C[C@H](C)[C@H](CC[C@@H]3C[C@@H](O)CC(=O)O3)[C@H]21` [mevastatin, Mevastatin] the “reduced triglyceride levels by, relative to the linoleic acid control” value (3T3-L1 adipocytes [1]) was 10%.
With `CC1=C(/C=C/C(C)=C/C=C/C(C)=C/CO)C(C)(C)CCC1` [vitamin A, retinol] the TG levels (3T3-L1 adipocytes [1]) was “little impact”.
